# In article PMC8984176, “Tuftsin: A Natural Molecule Against SARS-CoV-2 Infection” (Frontiers in Molecular Biosciences, 2022):
# Peptide text beside a SMILES is read from it.
# How the values were obtained:
# [1] = target: T1, recombinant human ACE2 (Homo sapiens, UniProt Q9BYF1); assay: SPR binding to immobilized ACE2; conditions: SPR Biacore T200, CM5 chip, amine coupling, 25°C, 30 µl/min, 1×PBS, 0.05% Tween 20, 5% dimethyl sulfoxide, pH 7.4; steady state affinity model; read-out: equilibrium dissociation constant (K D)
# T1 construct: purchased Novoprotein, Beijing, China
# T1 sequence (Q9BYF1 18-805): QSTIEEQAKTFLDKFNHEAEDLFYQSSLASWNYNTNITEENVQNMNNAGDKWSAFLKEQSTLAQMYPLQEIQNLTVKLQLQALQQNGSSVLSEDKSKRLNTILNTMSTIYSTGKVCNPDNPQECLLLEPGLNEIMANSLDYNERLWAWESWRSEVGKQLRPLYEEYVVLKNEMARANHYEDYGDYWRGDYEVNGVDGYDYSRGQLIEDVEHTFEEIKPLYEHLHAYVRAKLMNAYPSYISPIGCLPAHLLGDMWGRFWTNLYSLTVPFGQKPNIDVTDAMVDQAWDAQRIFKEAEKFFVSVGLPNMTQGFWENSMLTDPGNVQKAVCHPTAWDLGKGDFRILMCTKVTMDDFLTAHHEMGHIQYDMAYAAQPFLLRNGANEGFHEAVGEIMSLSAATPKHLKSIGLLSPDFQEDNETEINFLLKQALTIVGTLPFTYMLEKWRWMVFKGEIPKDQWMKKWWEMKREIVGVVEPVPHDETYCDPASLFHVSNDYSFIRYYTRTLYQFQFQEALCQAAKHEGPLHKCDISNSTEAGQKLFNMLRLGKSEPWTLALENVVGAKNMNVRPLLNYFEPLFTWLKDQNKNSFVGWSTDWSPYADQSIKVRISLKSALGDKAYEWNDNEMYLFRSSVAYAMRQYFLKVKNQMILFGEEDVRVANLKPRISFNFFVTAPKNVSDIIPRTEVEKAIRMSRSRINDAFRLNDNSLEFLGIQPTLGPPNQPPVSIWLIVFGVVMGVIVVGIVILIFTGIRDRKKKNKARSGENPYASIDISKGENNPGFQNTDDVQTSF
# Experimental: (§1) Each target was immobilized onto flow cells in a CM5 sensor chip (GE Healthcare) via the amine-coupling method. Briefly, ACE2 and NRP1 were diluted in 10 mM pH 4.5 acetate to 20 μg/ml. Then, the protein solutions were injected individually on the carboxyl-modified sensor surface to form amine bonds. Both ACE2 and NRP1 immobilized levels were approximately 10,000 RU. Binding analyses were carried out at 25°C and a flow rate of 30 µl/min. Tuftsin diluted in running buffer (1×PBS, 0.05% Tween 20 and 5% dimethyl sulfoxide, pH 7.4) was run over each target at gradient concentrations. An empty flow cell without any immobilized protein was used as a deducted reference. The binding curves were analysed using the steady state affinity model supplied with Biacore Evaluation Software (GE Healthcare).
# (§2) The interactions of tuftsin with ACE2 and NRP1 were further evaluated by real-time biomolecular interaction analysis with SPR. The steady state affinity of the binding reaction were determined by injecting different concentrations of tuftsin over recombinant human ACE2 immobilized on one half of the chip surface, and over recombinant human NRP1 immobilized on another half of the chip surface. […] The K D fitting curve of tuftsin with NRP1 is gradually stable when the concentrations of tuftsin increased gradually, conforming to the characteristic of specific binding (Figure 3B).
# [2] = target: recombinant human NRP1 (Homo sapiens, UniProt O14786); assay: SPR binding to immobilized NRP1; conditions: SPR Biacore T200, CM5 chip, amine coupling, 25°C, 30 µl/min, 1×PBS, 0.05% Tween 20, 5% dimethyl sulfoxide, pH 7.4; steady state affinity model; read-out: K D value
# Chain of recombinant human NRP1 (O14786 22-923): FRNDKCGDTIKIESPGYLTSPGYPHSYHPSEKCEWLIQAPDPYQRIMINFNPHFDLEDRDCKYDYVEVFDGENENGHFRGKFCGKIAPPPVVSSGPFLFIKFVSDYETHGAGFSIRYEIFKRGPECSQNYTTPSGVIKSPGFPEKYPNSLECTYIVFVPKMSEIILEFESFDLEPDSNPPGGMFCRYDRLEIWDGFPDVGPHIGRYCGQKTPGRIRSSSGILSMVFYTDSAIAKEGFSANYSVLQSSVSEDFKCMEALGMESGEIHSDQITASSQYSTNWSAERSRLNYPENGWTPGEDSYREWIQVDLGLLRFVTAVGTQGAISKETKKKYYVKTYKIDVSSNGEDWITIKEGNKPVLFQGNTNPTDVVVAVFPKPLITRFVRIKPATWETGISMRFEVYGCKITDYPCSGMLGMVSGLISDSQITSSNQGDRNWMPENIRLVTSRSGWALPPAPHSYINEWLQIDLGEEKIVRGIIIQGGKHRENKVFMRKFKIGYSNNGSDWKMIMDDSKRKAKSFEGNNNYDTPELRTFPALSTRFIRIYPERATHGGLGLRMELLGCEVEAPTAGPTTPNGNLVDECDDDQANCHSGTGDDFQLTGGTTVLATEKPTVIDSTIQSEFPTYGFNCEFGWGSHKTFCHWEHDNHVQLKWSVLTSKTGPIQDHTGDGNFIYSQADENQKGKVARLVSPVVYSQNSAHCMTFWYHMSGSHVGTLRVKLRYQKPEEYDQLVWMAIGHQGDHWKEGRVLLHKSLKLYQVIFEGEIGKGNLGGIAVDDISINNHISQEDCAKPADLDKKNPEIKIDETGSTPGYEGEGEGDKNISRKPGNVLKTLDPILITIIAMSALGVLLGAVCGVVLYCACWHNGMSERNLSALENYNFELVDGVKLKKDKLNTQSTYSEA
# Experimental: as §1, §2
# [3] = in vitro and in vivo; ref Amoscato et al., 1983; Fridkin and Najjar, 1989; Siemion and Kluczyk, 1999; cited from earlier work
# Text: Along with ACE2, neuropilin 1 (NRP1) is another important host factor for SARS-CoV-2 infection ([Daly et al., 2020]). It has been reported that NRP1 facilitates the entry of SARS-CoV-2 into cells in the presence of ACE2 ([Cantuti-Castelvetri et al., 2020]). […] Tuftsin, a natural phagocytosis-stimulating peptide, was found by [Najjar and Nishioka (1970)]. Tuftsin is released from the Fc fragment of IgG by enzyme cleavage of an endocarboxy-peptidase in the spleen and a leukokin ...
compound,measurement,setting,value
"C[C@@H](O)[C@H](N)C(=O)N[C@@H](CCCCN)C(=O)N1CCC[C@H]1C(=O)N[C@@H](CCCNC(=N)N)C(=O)O [tuftsin, L-Threonyl-L-Lysyl-L-Prolyl-L-Arginine] (H-TKPR-OH)",Kd,[1],460 µM
same,Kd,[2],10.7 µM
same,toxicity,[3],low toxicity
